{"source": "patent US9757364B2", "about": "“Naphthyridine derivative compounds” (ASTEX THERAPEUTICS LIMITED, priority 2011, dated 2017)", "assay_in_all_cases": "cells", "key": {"[1]": {"tested_on": "Ba/F3-Flt3-transfected cells", "conditions": "read-out: BAF3-FLT3 (MIN IL3) pIC50 (converted)", "procedure": "Ba/F3-Flt3 (Minus IL3 or Plus IL3) (Cellular Proliferation Assay)\n(§1) Cells were put in an incubator at 37° C. and 5% CO2.\n(§2) As a counterscreen the same experiment was performed in the presence of 10 ng/ml murine IL3."}, "[2]": {"tested_on": "Ba/F3-KDR-transfected cells", "procedure": "Ba/F3-KDR (Minus IL3 or Plus IL3) (Cellular Proliferation Assay)\nas §1, §2"}, "[3]": {"tested_on": "Ba/F3-FGFR1-transfected cells", "procedure": "Ba/F3-FGFR1 (Minus IL3 or Plus IL3) (Cellular Proliferation Assay)\nas §1, §2"}, "[4]": {"conditions": "read-out: BAF3-KDR (MIN IL3) pIC50 (converted)"}, "[5]": {"conditions": "read-out: BAF3-KDR (PLUS IL3) pIC50 (converted)"}}, "note": "Read-outs that look alike come from different tables or passages of the source.", "data": [{"molecule": "COc1cc(OC)cc(N(CCO)c2ccc3ncc(-c4cnn(C)c4)cc3n2)c1", "note": "[Compound 1]", "values": [{"measurement": "IC50", "setting": "[1]; 24 h", "result": 8.91, "unit": "µM"}]}, {"molecule": "COc1cc(OC)cc(N(CCCO)c2ccc3ncc(-c4cnn(C)c4)cc3n2)c1", "note": "[Compound 2]", "values": [{"measurement": "IC50", "setting": "[1]; 24 h", "result": "> 10", "unit": "µM"}]}, {"molecule": "COCCN(c1cc(OC)cc(OC)c1)c1ccc2ncc(-c3cnn(C)c3)cc2n1", "note": "[Compound 3]", "values": [{"measurement": "IC50", "setting": "[1]; 24 h", "result": "> 10", "unit": "µM"}]}, {"molecule": "COc1cc(OC)cc(N(CCNC(C)C)c2ccc3ncc(-c4cnn(C)c4)cc3n2)c1", "note": "[Compound 4]", "values": [{"measurement": "IC50", "setting": "[1]; 24 h", "result": 7.94, "unit": "µM"}]}, {"molecule": "COc1cc(/N=c2\\ccc3ncc(-c4cnn(C)c4)cc3n2CCNC(C)C)cc(OC)c1", "note": "[Compound 5]", "values": [{"measurement": "IC50", "setting": "[1]; 24 h", "result": "> 10", "unit": "µM"}]}, {"molecule": "COc1cc(OC)cc(N(CCN(CCNC(C)C)C(C)C)c2ccc3ncc(-c4cnn(C)c4)cc3n2)c1", "note": "[Compound 6]", "values": [{"measurement": "IC50", "setting": "[1]; 24 h", "result": 5.01, "unit": "µM"}]}, {"molecule": "COc1cc(OC)cc(N(Cc2nccn2S(=O)(=O)N(C)C)c2ccc3ncc(-c4cnn(C)c4)cc3n2)c1", "note": "[Compound 7]", "values": [{"measurement": "IC50", "setting": "[1]; 24 h", "result": "> 10", "unit": "µM"}]}, {"molecule": "C#CCN(c1cc(OC)cc(OC)c1)c1ccc2ncc(-c3cnn(C)c3)cc2n1", "note": "[Compound 8]", "values": [{"measurement": "IC50", "setting": "[1]; 24 h", "result": "> 10", "unit": "µM"}]}, {"molecule": "COc1cc(OC)cc(N(Cc2ncc[nH]2)c2ccc3ncc(-c4cnn(C)c4)cc3n2)c1", "note": "[Compound 10]", "values": [{"measurement": "IC50", "setting": "[1]; 24 h", "result": "> 10", "unit": "µM"}]}, {"molecule": "COc1cc(OC)c(F)c(N(Cc2ncccn2)c2ccc3ncc(-c4cnn(C)c4)cc3n2)c1F", "note": "[Compound 14]", "values": [{"measurement": "IC50", "setting": "[1]", "result": 7.76, "unit": "µM"}]}, {"molecule": "COc1cc(OC)c(F)c(N(CCCO)c2ccc3ncc(-c4cnn(C)c4)cc3n2)c1F", "note": "[Compound 22]", "values": [{"measurement": "IC50", "setting": "[1]", "result": 3.89, "unit": "µM"}]}, {"molecule": "COc1cc(OC)c(F)c(N(Cc2ncccn2)c2ccc3ncc(-c4cnn(C)c4)cc3n2)c1", "note": "[Compound 27]", "values": [{"measurement": "IC50", "setting": "[1]", "result": "> 10", "unit": "µM"}]}, {"molecule": "COc1cc(OC)c(F)c(N(Cc2nccn2S(=O)(=O)N(C)C)c2ccc3ncc(-c4cnn(C)c4)cc3n2)c1F", "note": "[Compound 64]", "values": [{"measurement": "IC50", "setting": "[1]", "result": 2.45, "unit": "µM"}]}, {"molecule": "COc1cc(OC)c(F)c(N(Cc2ncc[nH]2)c2ccc3ncc(-c4cnn(C)c4)cc3n2)c1F", "note": "[Compound 65]", "values": [{"measurement": "IC50", "setting": "[1]", "result": 3.55, "unit": "µM"}]}, {"molecule": "COc1cc(OC)cc(N(Cc2nccn2S(=O)(=O)N(C)C)c2cc3cc(-c4cnn(C)c4)cnc3cn2)c1", "note": "[Compound 66]", "values": [{"measurement": "IC50", "setting": "[2]; [4]", "result": "> 10", "unit": "µM"}, {"measurement": "IC50", "setting": "[2]; [5]", "result": "> 10", "unit": "µM"}]}, {"molecule": "COc1cc(OC)cc(N(Cc2ncc[nH]2)c2cc3cc(-c4cnn(C)c4)cnc3cn2)c1", "note": "[Compound 67]", "values": [{"measurement": "IC50", "setting": "[2]; [4]", "result": "> 10", "unit": "µM"}, {"measurement": "IC50", "setting": "[2]; [5]", "result": "> 10", "unit": "µM"}]}, {"molecule": "COc1cc(OC)cc(N(CCNC(C)C)c2cc3cc(-c4cnn(C)c4)cnc3cn2)c1", "note": "[Compound 68]", "values": [{"measurement": "IC50", "setting": "[2]; [4]", "result": "> 10", "unit": "µM"}, {"measurement": "IC50", "setting": "[2]; [5]", "result": "> 10", "unit": "µM"}]}, {"molecule": "COCCN(c1cc(OC)cc(OC)c1)c1cc2cc(-c3cnn(C)c3)cnc2cn1", "note": "[Compound 69]", "values": [{"measurement": "IC50", "setting": "[3]; read-out: BAF3-FGFR1 (MIN IL3) pIC50 (converted)", "result": 8.13, "unit": "µM"}, {"measurement": "IC50", "setting": "[3]; read-out: BAF3-FGFR1 (PLUS IL3) pIC50 (converted)", "result": "> 10", "unit": "µM"}, {"measurement": "IC50", "setting": "[2]; [4]", "result": "> 10", "unit": "µM"}, {"measurement": "IC50", "setting": "[2]; [5]", "result": "> 10", "unit": "µM"}]}, {"molecule": "CNCCN(c1cc2cc(-c3cnn(C)c3)cnc2cn1)c1cc(OC)cc(OC)c1F", "note": "[Compound 73]", "values": [{"measurement": "IC50", "setting": "[2]; [4]", "result": "> 10", "unit": "µM"}, {"measurement": "IC50", "setting": "[2]; [5]", "result": "> 10", "unit": "µM"}]}, {"molecule": "COc1cc(OC)c(F)c(N(CCCO)c2cc3cc(-c4cnn(C)c4)cnc3cn2)c1", "note": "[Compound 75]", "values": [{"measurement": "IC50", "setting": "[2]; [4]", "result": "> 10", "unit": "µM"}, {"measurement": "IC50", "setting": "[2]; [5]", "result": "> 10", "unit": "µM"}]}, {"molecule": "COc1cc(OC)c(F)c(N(Cc2nccn2S(=O)(=O)N(C)C)c2cc3cc(-c4cnn(C)c4)cnc3cn2)c1", "note": "[Compound 76]", "values": [{"measurement": "IC50", "setting": "[2]; [4]", "result": "> 10", "unit": "µM"}, {"measurement": "IC50", "setting": "[2]; [5]", "result": "> 10", "unit": "µM"}]}, {"molecule": "COc1cc(OC)c(F)c(N(Cc2ncc[nH]2)c2cc3cc(-c4cnn(C)c4)cnc3cn2)c1", "note": "[Compound 77]", "values": [{"measurement": "IC50", "setting": "[2]; [4]", "result": "> 10", "unit": "µM"}, {"measurement": "IC50", "setting": "[2]; [5]", "result": "> 10", "unit": "µM"}]}]}
